Measured values reported in US6489469B1, “Method for storing or transporting erythritol solution” (Nikken Chemicals Co., Ltd., priority 1999, dated 2002).

Tested on: Aspergillus niger IFO 6342
Assay: Viable Count of Aspergillus niger IFO 6342 in Erythritol Solution
Format: cell-based
Description: Erythritol solutions of respective concentrations in the range of from 30 to 60% were prepared. To these were inoculated Staphylococcus aureus IFO 13276, Bacillus subtilis IFO 3134, and Escherichia coli IFO 3972 as bacteria, Candida albicans IFO 1549 and Saccharomyces cerevisiae ATCC 9763 as yeasts, Aspergillus niger IFO 6342, Aspergillus flavus IFO 6343, and Penicillium funiculosum IFO 6345 as fungi, respectively, in a population (concentration) of 10,000 cells/mL or more. After the inoculation, the solutions were stored at 30, 37, 45, 50, or 60° C., respectively, for 56 days and the number of viable cell was determined daily. The determination of the number of viable cell was performed by a method of coating 0.1 mL of appropriately diluted sample cultivation on an agar plate and cultivating and counting the number of viable cell (the number of colony) that grew after the cultivation.

## OC[C@@H](O)[C@@H](O)CO [Erythritol Solution, erythritol]
45° C., 30% w/w, Day 0
  The Number of Viable Cell: ≥ 10000 cells/mL
45° C., 30% w/w, Day 3
  The Number of Viable Cell: ≥ 10000 cells/mL
45° C., 30% w/w, Day 7
  The Number of Viable Cell: ≥ 10000 cells/mL
45° C., 30% w/w, Day 14
  The Number of Viable Cell: ≥ 10000 cells/mL
45° C., 30% w/w, Day 28
  The Number of Viable Cell: ≥ 10000 cells/mL
45° C., 30% w/w, Day 56
  The Number of Viable Cell: 0 cells/mL
45° C., 40% w/w, Day 0
  The Number of Viable Cell: ≥ 10000 cells/mL
45° C., 40% w/w, Day 3
  The Number of Viable Cell: ≥ 10000 cells/mL
45° C., 40% w/w, Day 7
  The Number of Viable Cell: ≥ 10000 cells/mL
45° C., 40% w/w, Day 14
  The Number of Viable Cell: ≥ 10000 cells/mL
45° C., 40% w/w, Day 28
  The Number of Viable Cell: 0 cells/mL
45° C., 40% w/w, Day 56
  The Number of Viable Cell: 0 cells/mL
45° C., 50% w/w, Day 0
  The Number of Viable Cell: ≥ 10000 cells/mL
45° C., 50% w/w, Day 3
  The Number of Viable Cell: ≥ 10000 cells/mL
45° C., 50% w/w, Day 7
  The Number of Viable Cell: ≥ 10000 cells/mL
45° C., 50% w/w, Day 14
  The Number of Viable Cell: ≥ 10000 cells/mL
45° C., 50% w/w, Day 28
  The Number of Viable Cell: 0 cells/mL
45° C., 50% w/w, Day 56
  The Number of Viable Cell: 0 cells/mL
50° C., 30% w/w, Day 0
  The Number of Viable Cell: ≥ 10000 cells/mL
50° C., 30% w/w, Day 3
  The Number of Viable Cell: 0 cells/mL
50° C., 30% w/w, Day 7
  The Number of Viable Cell: 0 cells/mL
50° C., 30% w/w, Day 14
  The Number of Viable Cell: 0 cells/mL
50° C., 30% w/w, Day 28
  The Number of Viable Cell: 0 cells/mL
50° C., 30% w/w, Day 56
  The Number of Viable Cell: 0 cells/mL
50° C., 40% w/w, Day 0
  The Number of Viable Cell: ≥ 10000 cells/mL
50° C., 40% w/w, Day 3
  The Number of Viable Cell: ≥ 10000 cells/mL
50° C., 40% w/w, Day 7
  The Number of Viable Cell: 0 cells/mL
50° C., 40% w/w, Day 14
  The Number of Viable Cell: 0 cells/mL
50° C., 40% w/w, Day 28
  The Number of Viable Cell: 0 cells/mL
50° C., 40% w/w, Day 56
  The Number of Viable Cell: 0 cells/mL
50° C., 50% w/w, Day 0
  The Number of Viable Cell: ≥ 10000 cells/mL
50° C., 50% w/w, Day 3
  The Number of Viable Cell: ≥ 10000 cells/mL
50° C., 50% w/w, Day 7
  The Number of Viable Cell: 0 cells/mL
50° C., 50% w/w, Day 14
  The Number of Viable Cell: 0 cells/mL
50° C., 50% w/w, Day 28
  The Number of Viable Cell: 0 cells/mL
50° C., 50% w/w, Day 56
  The Number of Viable Cell: 0 cells/mL
60° C., 30% w/w, Day 0
  The Number of Viable Cell: ≥ 10000 cells/mL
60° C., 30% w/w, Day 3
  The Number of Viable Cell: 0 cells/mL
60° C., 30% w/w, Day 7
  The Number of Viable Cell: 0 cells/mL
60° C., 30% w/w, Day 14
  The Number of Viable Cell: 0 cells/mL
60° C., 30% w/w, Day 28
  The Number of Viable Cell: 0 cells/mL
60° C., 30% w/w, Day 56
  The Number of Viable Cell: 0 cells/mL
60° C., 40% w/w, Day 0
  The Number of Viable Cell: ≥ 10000 cells/mL
60° C., 40% w/w, Day 3
  The Number of Viable Cell: 0 cells/mL
60° C., 40% w/w, Day 7
  The Number of Viable Cell: 0 cells/mL
60° C., 40% w/w, Day 14
  The Number of Viable Cell: 0 cells/mL
60° C., 40% w/w, Day 28
  The Number of Viable Cell: 0 cells/mL
60° C., 40% w/w, Day 56
  The Number of Viable Cell: 0 cells/mL
60° C., 50% w/w, Day 0
  The Number of Viable Cell: ≥ 10000 cells/mL
60° C., 50% w/w, Day 3
  The Number of Viable Cell: 0 cells/mL
60° C., 50% w/w, Day 7
  The Number of Viable Cell: 0 cells/mL
60° C., 50% w/w, Day 14
  The Number of Viable Cell: 0 cells/mL
60° C., 50% w/w, Day 28
  The Number of Viable Cell: 0 cells/mL
60° C., 50% w/w, Day 56
  The Number of Viable Cell: 0 cells/mL
60° C., 60% w/w, Day 0
  The Number of Viable Cell: ≥ 10000 cells/mL
60° C., 60% w/w, Day 3
  The Number of Viable Cell: 0 cells/mL
60° C., 60% w/w, Day 7
  The Number of Viable Cell: 0 cells/mL
60° C., 60% w/w, Day 14
  The Number of Viable Cell: 0 cells/mL
60° C., 60% w/w, Day 28
  The Number of Viable Cell: 0 cells/mL
60° C., 60% w/w, Day 56
  The Number of Viable Cell: 0 cells/mL
Temperature of 50° C. or more
  growth of the microbes: prevented from growing
  time after which microbes died: 7 days
